Experimental data: US8877949B2, “Furo[3,2-g]chromene compounds and uses thereof” (Shenyang Pharmaceutical University, priority 2010, dated 2014)

Columns and labels:
[1] = test system: LDL cell-mediated oxidation; experiment: Inhibition of LDL oxidation, antioxidant activity (TBARS); format: cell-based, Swine; conditions: Sus scrofa; compound 5 μM, 12.5 μg/mL LDL, 37° C., 4 hours; n = 2; read-out: Oxidation inhibition rate
Description: Swine aortas were obtained from a slaughterhouse, washed, and then transferred into cold PBS. Epithelial cells were collected from the aortas. Particularly, in order to collect the epithelial cells, intercostal blood vessel of the aorta was knotted, and one end of the aorta was clamped with a forceps. Fresh 0.2% collagenase (Sigma Type I) which had been filtered for sterilization was placed into the blood vessel, and another end of the blood vessel was clamped with a forceps so as to form a closed system. The aortas were cultured at 37° C. for 15-20 min, then collagenase solution was collected and centrifuged for 5 min. The resultant precipitate was resuspended in 7 mL epithelial cell medium (i.e. a DMEM/Ham'S F12 medium without phenolsulfonphthalein but supplemented with carbon stripped FBS (5%)), then seeded in a 100 mm dish and cultured at 37° C., 5% CO2. Twenty minutes later, the cells were rinsed with PBS, and a fresh medium was added. The above process was repeated for 24 hours. After about one week, the cells were confluent. Usually, these epithelial cells were fed twice per week, and seeded with a ratio of 1:7 after the action of trypsin during confluence. In the case that the compound (5 μM) to be evaluated existed, 12.5 μg/mL LDL cell-mediated oxidation was carried out at 37° C. for 4 hours. The result was expressed as the percentage of oxidation inhibition, which was determined by analyzing free aldehyde by the TBARS (Thiobarbituric acid reactive substances) method.

[2] = test system: DU-145 prostate cancer cells; experiment: Effect on the proliferation of prostate cancer cells; format: cell-based; conditions: Homo sapiens, DU-145, 120 h; 5 days, Cyquant kit; n = 2
Procedure: DU-145 prostate cancer cells were plated onto a 96-well dish, in a density of 2×10^3 cells/well in a MEM Eagles medium without phenol red. Such a medium comprises Earles' balanced salt, 1% antibiotic-antifungal agent, 2 mM glutamine, 0.1 mM nonessential amino acids, 1 mM sodium pyruvate and 10% carbon stripped FCS. The next day, the compound and vehicle (0.2% DMSO) were added, and the medium was refreshed every 48 hours. The cultivation was stopped 5 days later. Proliferation was analyzed using the above Cyquant kit.

[3] = test system: MCF-7 cells or BG-1 cells; experiment: Effect on the proliferation of breast cancer cells (MCF-7 or BG-1 cells in nude mice); format: in vivo; conditions: Mus musculus; n = 2
Procedure: Using standard pharmacological experimental methods easily found in reference documents, the capabilities of the inventive compounds to treat and inhibit different types of malignant tumors or over-proliferation diseases can be evaluated.
Spayed athymic nu/nu (nude) mice were used. One day before the injection of tumor cells, a release-controlled pill containing 0.36-1.7 mg of β estradiol (60- or 90-day release) or a placebo was implanted into the animal. The pill was introduced into the endo-sculpture zone subcutaneously using a 10-scaled precise rotor. Next, 1×10^7 MCF-7 cells or 1×10^7 BG-1 cells were injected into breast tissues of the mice subcutaneously. The cells were mixed with matrigel with a same volume, and the latter was a liquid preparation of basilar membrane substrate, so as to facilitate tumor construction. One day after the implantation of the tumor cells (i.e. an inhibition protocol), or after the tumor had reached a certain volume (i.e. a treatment protocol), the tested compounds could be evaluated through administration. The saline containing the compound in a 1% Tween-80 vehicle was administered intraperitoneally or orally every day. The volumes of the tumors were evaluated every 3 or 7 days.

[4] = test system: Ovarian Cancer Cells SKOV3; experiment: Effect on the proliferation of ovarian cancer cells SKOV3 (MTT); format: cell-based; conditions: Homo sapiens, SK-OV-3, n = 3
Procedure: Cells in the logarithmic growth phase were digested with trypsin, added to a 96-well plate, in a density of 6×10^3 cells/well, and cultured in a 37° C., 5% CO2 incubator. The next day, the plated was transferred to and kept in a 4° C. incubator for 1 h after the adherence of most cells, so as to achieve synchronized growth of the cells. The supernatant was sucked out, and a RPMI 1640 medium containing 10% fetal calf serum (FCS) was added, 200 μL/well. The cells were grouped according to the design of the experiment. The injectable solution of the compound prepared with sterile physiological saline was added to the 96 wells, 200 μL/well, so that the concentrate of the medicament in each well were 1 mg/mL, 2 mg/mL and 5 mg/mL, respectively. A concentration of 0 mg/mL was used as a negative control group. After subsequent cultivation for 24, 48, or 72 h, 20 μL MTT solution (with a concentration of 5 mg/mL) was added to each well, respectively. The plate was shaken gently, returned to the incubator and incubated for another 4 h. Then the supernatant was sucked out completely, and 200 μL of dimethyl sulfoxide was added to each well. The plate was shaken for 5-10 min on a shaker. The absorption (A=580) of each well at a wavelength of 580 nm was measured using a microplate reader. The A=580 value was proportional to the number of live cells.

[5] = test system: Osteosarcoma Cells U2OS-EGFP-4A12G; experiment: Effect on the proliferation of osteosarcoma cells U2OS-EGFP-4A12G (MTT); format: cell-based; conditions: n = 3
Procedure: Cells in the logarithmic growth phase were digested with trypsin, counted with trypan blue, and prepared into a cellular suspension with a density of 1×10^4 cells/mL. The suspension was seeded in a 96-well plate, 200 μL/well, about 2×10^3 cells/well, and pre-cultured for 24 h. […] A concentration of 0 mg/mL was used as a negative control group. After subsequent cultivatation for 0 h, 12 h, 24 h or 48 h, 20 μL MTT solution (5 mg/mL) was added to each well. The cultivation was terminated after another 4 h incubation. The supernatant in each well was sucked out carefully, and 150 μL of dimethyl sulfoxide (DMSO) was added to each well. The plate was shaken for 10 min, so that formazan was dissolved thoroughly. The absorption value (A value) of each well was measured using an enzyme linked immunosorbent detector, at a selected wavelength of 490 nm. The measurement was repeated for 5 times.

Row | Structure (SMILES) | inhibition at 5 µM [1] [%] | IC50 [2] [µM] | IC50 [3] [µM] | IC50 [4] [µM] | IC50 [5] [µM]
1 | O=C(c1ccc(OCC(=O)N2CCOCC2)cc1)c1oc2cc3c(cc2c1-c1ccc(O)cc1)CCCO3 [2-[4-(morpholine-2-oxo-ethoxy)benzoyl]-3-(4-hydroxyphenyl)-6,7-dihydrogen-5H-furo[3,2-g]chromene] | 12.4 | 23.7 | 46.7 | – | –
2 | CCN(CC)CCOc1ccc(C(=O)c2oc3cc4c(cc3c2-c2ccc(O)cc2)CCCO4)cc1 [Example 56, 2-[4-(diethylaminoethoxy)benzoyl]-3-(4-hydroxyphenyl)-6,7-dihydrogen-5H-furo[3,2-g]chromene] | 5.1 | 17.1 | 22.1 | 17.9 | 14.9
3 | CN(C)CCOc1ccc(C(=O)c2oc3cc4c(cc3c2-c2ccc(O)cc2)CCCO4)cc1 [Example 58, 2-[4-(dimethylaminoethoxy)benzoyl]-3-(4-hydroxyphenyl)-6,7-dihydrogen-5H-furo[3,2-g]chromene] | 6.8 | 43.6 | 4.6 | – | –
4 | O=C(c1ccc(OCC(=O)N2CCCCC2)cc1)c1oc2cc3c(cc2c1-c1ccc(O)cc1)CCCO3 [Example 60, 2-[4-(piperidine-2-oxo-ethoxy)benzoyl]-3-(4-hydroxyphenyl)-6,7-dihydrogen-5H-furo[3,2-g]chromene] | 22.6 | 14.5 | 11.5 | – | –
5 | CCN(CC)C(=O)COc1ccc(C(=O)c2oc3cc4c(cc3c2-c2ccc(O)cc2)CCCO4)cc1 [Example 62, 2-[4-(diethylamino-2-oxo-ethoxy)benzoyl]-3-(4-hydroxyphenyl)-6,7-dihydrogen-5H-furo[3,2-g]chromene] | 36.8 | 35.2 | 25.2 | – | –
6 | CN(C)C(=O)COc1ccc(C(=O)c2oc3cc4c(cc3c2-c2ccc(O)cc2)CCCO4)cc1 [Example 64, 2-[4-(dimethylamino-2-oxo-ethoxy)benzoyl]-3-(4-hydroxyphenyl)-6,7-dihydrogen-5H-furo[3,2-g]chromene] | 44.9 | 8.5 | 5.6 | – | –
